For one assay, the target named is T1, Full-length MALT1 enzyme (Homo sapiens, UniProt Q9UDY8).
T1 construct: Full-length MALT1 enzyme at 2 nM was assayed in 50 mM HEPES
T1 sequence (Q9UDY8 1-824): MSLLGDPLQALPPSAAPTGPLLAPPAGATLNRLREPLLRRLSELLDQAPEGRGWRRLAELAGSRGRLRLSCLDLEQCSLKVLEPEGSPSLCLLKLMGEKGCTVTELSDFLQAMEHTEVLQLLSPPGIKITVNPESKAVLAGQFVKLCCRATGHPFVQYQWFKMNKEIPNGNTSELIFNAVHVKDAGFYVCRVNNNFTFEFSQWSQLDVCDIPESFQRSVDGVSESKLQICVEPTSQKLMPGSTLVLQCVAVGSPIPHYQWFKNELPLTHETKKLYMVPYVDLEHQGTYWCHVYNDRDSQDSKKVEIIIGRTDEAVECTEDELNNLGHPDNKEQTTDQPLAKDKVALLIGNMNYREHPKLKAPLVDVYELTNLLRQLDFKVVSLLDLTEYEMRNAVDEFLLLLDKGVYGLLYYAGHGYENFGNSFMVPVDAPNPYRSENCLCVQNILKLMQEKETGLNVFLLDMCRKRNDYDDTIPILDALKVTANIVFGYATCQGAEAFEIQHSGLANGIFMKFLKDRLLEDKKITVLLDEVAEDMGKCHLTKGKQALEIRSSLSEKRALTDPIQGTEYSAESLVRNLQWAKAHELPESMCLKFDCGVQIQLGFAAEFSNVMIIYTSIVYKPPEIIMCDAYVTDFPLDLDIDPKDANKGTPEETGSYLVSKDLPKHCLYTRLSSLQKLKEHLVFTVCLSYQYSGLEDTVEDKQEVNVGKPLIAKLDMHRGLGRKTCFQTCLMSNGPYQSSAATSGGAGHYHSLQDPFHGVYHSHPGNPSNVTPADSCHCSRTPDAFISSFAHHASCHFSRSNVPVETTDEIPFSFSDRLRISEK
Nature of the assay: MALT1 biochemical assay. To be noted: 2 nM enzyme, 50 μM Ac-Leu-Arg-Ser-Arg-AMC substrate. The procedure:
Full-length MALT1 enzyme at 2 nM was assayed in 50 mM HEPES, 100 mM NaCl, 0.9 M NaCitrate, 1 mM EDTA, pH 7.5, with 50 μM Ac-Leu-Arg-Ser-Arg-AMC as substrate. Compound was added in an 11-point concentration series from 100 μM to 1 nM in half-log dilution.
Compounds were distributed in 384 well plates by Echo550, and the assay was run with fluorescence readings at 460 nm, every 2 minutes for 60 minutes.

For another assay, the target named is T2, MALT1 (Homo sapiens, UniProt Q9UDY8).
T2 construct: endogenous in cells; host or cells: Jurkat clone E6-1 (ATCC)
T2 sequence (Q9UDY8 1-824): T1 sequence (Q9UDY8 1-824)
Nature of the assay: HOIL1 cleavage assay (in-cell MALT1 protease activity, Jurkat E6-1). To be noted: Jurkat E6-1, PMA/Ionomycin-induced cleavage of HOIL1, 60 minutes. The assay is classed as cell-based. The procedure: In-cell MALT1 protease activity, was measured as inhibition of PMA/lonomycin-induced cleavage of HOIL1. Day 1 0.75×10^6 cells/well were seeded in a 48 well plate. Day 2 cells were stimulated by PMA/lonomycin (1:500 dilution) with addition of vehicle or compound in a 5-point concentration series, 1:3 dilution.

In assay [1] the test system is IL-2 expression in Jurkat (E6-1) cells. Nature of the assay: IL-2 expression assay (down-stream MALT1 activity, Jurkat E6-1). Type of assay: cell-based. To be noted: Homo sapiens; Jurkat E6-1, PMA/Ionomycin stimulation, 24 hours. On the procedure: Down-stream MALT1 activity was measured by PMA/lonomycin-induced expression of IL-2 in Jurkat (E6-1) cells. Compounds were distributed in a 96 well plate, 8-point concentration series, 1:3 dilution. Jurkat clone E6-1, 4×10^4 cells/well, were added, and stimulated by PMA/lonomycin (1:500 dilution) for 24 hours at 37° C. Measurement was performed using a MesoScale Sector S600 with the Human IL-2 Tissue Culture kit according to the manufacturers recommendation.

For the compound `CO[C@@H](C)c1c(NC(=O)Nc2cnc(-n3cc(CN)cn3)c(Cl)c2)cnc2cc(Cl)nn12` [Example 1, (S)-1-(6-(4-(aminomethyl)-1H-pyrazol-1-yl)-5-chloropyridin-3-yl)-3-(2-chloro-7-(1-methoxyethyl)pyrazolo[1,5-a]pyrimidin-6-yl)urea], the IC50 (in general, the concentration that gives 50% inhibition) against Full-length MALT1 enzyme is 37.5 nM; against MALT1 it was 0.04 µM; in assay [1], 0.03 µM.

Turning to `CO[C@@H](C)c1c(NC(=O)Nc2ccnc(C(F)(F)F)c2)cnc2cc(Cl)nn12` [Example 3, (S)-1-(2-Chloro-7-(1-methoxyethyl)pyrazolo[1,5-a]pyrimidin-6-yl)-3-(2-(trifluoromethyl)pyridin-4-yl)urea], in assay [1], the IC50 is 0.02 µM. That is a double-digit nanomolar value.
